In PubChem BioAssay (NCI):
Several values for one entry are separate records, joined by “and”; a condition that tells them apart may be missing. Equal entries are not always repeated.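 Growth conditions: 96-well plates. Treatment: test compound, 48 hours, 5 concentrations. Analysis: linear interpolation between bracketing concentrations; unreached endpoints set to highest concentration. GI50: concentration for 50% inhibition of growth. TGI: concentration producing complete growth inhibition.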

Experiments:
Assay in all cases: NCI tumour cell line growth inhibition, 48 h
[1] = test system: COLO 205 colon
[2] = test system: EKVX NSCLC
[3] = test system: HCC-2998 colon
[4] = test system: HL-60(TB) leukemia
[5] = test system: HT29 colon
[6] = test system: NCI/ADR-RES ovarian
[7] = test system: PC-3 prostate
[8] = test system: RPMI-8226 leukemia
[9] = test system: SK-MEL-5 melanoma
[10] = test system: T-47D breast

SMILES | TGI [1] | TGI [2] | TGI [3] | TGI [4] | TGI [5] | TGI [6] | TGI [7] | TGI [8] | TGI [9] | TGI [10] | GI50 [1] | GI50 [2] | GI50 [3] | GI50 [4] | GI50 [5] | GI50 [6] | GI50 [7] | GI50 [8] | GI50 [9] | GI50 [10]
CCc1nc(N)nc(N)c1-c1ccc2nnn(O)c2c1 | > 100 µM | > 100 µM | > 100 µM | > 100 µM | > 100 µM | > 100 µM | > 100 µM | > 100 µM | > 100 µM | > 100 µM | – | – | – | – | – | – | – | – | – | –
CCCc1cc(=O)n2c(C(=O)Nc3cccc(C(=O)OCC)c3)c(C(=O)Nc3ccc(F)cc3)sc2n1 | > 140 µM | > 140 µM | > 140 µM | > 140 µM | > 140 µM | > 140 µM | > 140 µM | > 140 µM | > 140 µM | > 140 µM | 70.8 µM | > 140 µM | > 140 µM | > 140 µM | 87.9 µM | 22.3 µM | 45.9 µM | 6.2 µM | 75.1 µM | 13.5 µM
C[C@@H]1CCC([C@@H](C)[C@H]2CC[C@H]3[C@@H]4CC[C@H]5C[C@@H](O)CC[C@]5(C)[C@H]4CC[C@]23C)=NC1 | > 53.2 µM | > 100 µM | 55.4 µM | > 21.2 µM | > 55.4 µM | > 100 µM | > 100 µM | > 20.4 µM | 42.8 µM | > 61.9 µM | – | – | – | – | – | – | – | – | – | –
O=[N+]([O-])c1ccc(C2=Nn3c(nnc3-c3ccc(Cl)cc3)SC2)o1 | 4.31 µM | 23.9 µM | 5.72 µM | 6.28 µM | 11.1 µM | 45.1 µM | 18.4 µM | 6.37 µM | 25.3 µM | 12.9 µM | – | – | – | – | – | – | – | – | – | –
Cc1cc(O)cc(C)c1/C=C/c1cncc(C(N)=O)c1 | > 25 µM | > 25 µM | > 25 µM | > 12.9 µM | > 23.4 µM | > 10.9 µM | > 25 µM | > 25 µM | > 25 µM | > 25 µM | 16.5 µM | 7.93 µM | 21.9 µM | 2.29 µM | 6.9 µM | 1.07 µM | 5.09 µM | 7.91 µM | 1.11 µM | 1.8 µM
CCCCCCCCC/C(=N\NC(=O)c1ccncc1)c1ccc(O)c(O)c1O | 17.4 µM | > 100 µM | > 36.6 µM | 0.955 µM | 32.9 µM | 11.4 µM | > 100 µM | 31.5 µM | 0.494 µM | > 93.6 µM | 0.617 µM | 0.244 µM | 0.199 µM | 0.288 µM | 0.513 µM | 0.093 µM | 1.6 µM | 0.195 µM | 0.139 µM | 0.596 µM
CC1(C)CC[C@]2(C(=O)O)CC[C@]3(C)C(=CC[C@@H]4[C@@]5(C)C[C@H](O)[C@H](O)[C@@](C)(C(=O)O)[C@@H]5CC[C@]43C)[C@@H]2C1 | > 100 µM | > 100 µM | > 100 µM | > 31.6 µM | > 100 µM | > 100 µM | > 100 µM | > 100 µM | > 100 µM | > 100 µM | – | – | – | – | – | – | – | – | – | –
CC1=CCCC2C1(C)CCC(C)C2(C)Cc1cc(O)ccc1O (centres undefined) | 34.9 µM and 32.1 µM | 22 µM and 18.8 µM | 30 µM and 24.6 µM | 15.2 µM and 4.61 µM | 29.6 µM and 37.1 µM | 18.2 µM and 18.9 µM | 18.1 µM | 9.97 µM and 8.53 µM | 27.7 µM and 24.9 µM | 27.3 µM | – | 7.71 µM | 15.6 µM | 2.67 µM | 14.2 µM | – | – | – | 10.6 µM | –
Cc1nc(-c2nc(-c3ccc(OC(F)(F)F)cc3)no2)nn1Cc1cccc(N2CCC(S(C)(=O)=O)CC2)c1 | > 100 µM | 48.6 µM | > 100 µM | > 49.5 µM | > 100 µM | 28.6 µM | 55.2 µM | > 100 µM | 1.06 µM | > 100 µM | 11.1 µM | 1.6 µM | > 40.6 µM | – | > 25 µM | 0.529 µM | 3.59 µM | – | < 0.01 µM | 0.0134 µM
COC(=O)C1=COC(C)C2CN3CCc4c([nH]c5cc(OC)c(OC)cc45)C3CC12 (centres undefined) | > 100 µM and 86.6 µM | > 100 µM | > 100 µM | 66.6 µM and 65.9 µM | > 100 µM and 94.5 µM | > 100 µM | > 100 µM | > 100 µM | > 100 µM | > 100 µM | – | – | – | – | – | 15.1 µM and 64.2 µM | – | – | – | –
COc1cc2ncnc(Nc3cccc(Cl)c3F)c2cc1OC(=O)N1CCN(C)C[C@H]1C | > 58.1 µM | > 61.2 µM | > 70 µM | > 70.5 µM | > 64.9 µM | > 75.2 µM | > 93.3 µM | > 68.2 µM | > 56.9 µM | > 45.5 µM | > 38.1 µM | 0.253 µM | > 45.4 µM | > 47.3 µM | > 38.4 µM | > 36.3 µM | 35.3 µM | > 42.6 µM | > 39.8 µM | 2.47 µM
COc1cc2c(cc1Cc1cccc(Cl)c1F)c(=O)c(C(=O)O)cn2[C@@H](CO)C(C)C | 6.29 µM | 17.3 µM | 11.6 µM | 6.95 µM | 5.56 µM | 19.4 µM | 9.21 µM | 12.5 µM | 8.88 µM | 18.3 µM | 2.64 µM | 3.85 µM | 3.13 µM | 2.81 µM | 2.62 µM | 4.99 µM | 2.59 µM | 3.36 µM | 2.85 µM | 5.5 µM
[Cl][Hg][c]1ccc(Cl)s1 | 2.9 µM | 20.2 µM | 26.4 µM | 6.29 µM | 4.66 µM | 23.3 µM | 16.2 µM | 6.58 µM | 7.34 µM | 3.37 µM | 1.39 µM | 5.72 µM | 11.9 µM | 2.1 µM | 1.14 µM | 3.31 µM | 5.62 µM | 2.23 µM | 2.45 µM | 0.908 µM
CN1CCC2(CC1)NC(=O)c1c(c3ccc(Cl)c(Cl)c3n1C)C2C#N (centres undefined) | 3.83 µM | 41.1 µM | 3.95 µM | > 22.6 µM | 23.6 µM | 23 µM | 21.1 µM | 13.3 µM | 5.18 µM | 20.3 µM | 1.8 µM | 12.4 µM | 1.89 µM | 3.91 µM | 3.95 µM | 7.46 µM | 5.7 µM | 2.94 µM | 2.11 µM | 5.45 µM
